Values of other authors in patent US20260207481A1, “INTRANASAL […] OF C[…] TREAT CENTRAL NERVOUS SYSTEM DISORDERS” (Nose to Brain Therapeutics LLC, priority 2019, published 2026).

What was measured:
[1] = oral mucosal sprays compared to IV administration (FIG. 2)
[2] = target: CB2 (Homo sapiens, UniProt P34972)
CB2, sequence (P34972 whole entry): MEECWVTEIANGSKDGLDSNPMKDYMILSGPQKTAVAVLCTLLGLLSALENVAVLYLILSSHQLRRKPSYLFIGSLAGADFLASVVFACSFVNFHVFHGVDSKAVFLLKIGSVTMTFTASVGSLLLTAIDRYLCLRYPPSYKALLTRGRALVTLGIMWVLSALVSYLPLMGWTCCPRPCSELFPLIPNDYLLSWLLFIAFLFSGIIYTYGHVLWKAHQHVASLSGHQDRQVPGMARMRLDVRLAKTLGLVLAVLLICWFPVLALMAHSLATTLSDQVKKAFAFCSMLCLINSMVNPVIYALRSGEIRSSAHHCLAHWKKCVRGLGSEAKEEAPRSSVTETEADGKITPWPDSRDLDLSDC

Structure (SMILES): C=C(C)[C@@H]1CCC(C)=C[C@H]1c1c(O)cc(CCCCC)cc1O [CBD, Cannabidiol]
- Cmax [1]: poor
- binding affinity to CB2 [2]: minimal
